Consider 21 compounds from patent US9868738B2, “Diazine-fused amidines as BACE inhibitors, compositions, and their use” (Merck Sharp & Dohme Corp., priority 2014, dated 2018).

The structures appear in SMILES notation.

In test [1] the target is soluble human BACE1 catalytic domain (Homo sapiens (Human), UniProt P56817). The test can be described thus: BACE-1 Ki Assay (BACE-1 HTRF FRET Assay). Type of test: biochemical. The settings on record: Ki calculated from IC50 using the Cheng-Prusoff equation; QSY7-APPswe-Eu substrate 200 nM, pH 5.0. The protocol:
In another embodiment, the compounds of the invention comprise the example compounds shown in the table below, or a tautomer thereof, or a pharmaceutically acceptable salt of said compound or said tautomer. Examples 2 to 42 were prepared using the method similar to Ex. 1. Example 44 to 51 were synthesized using the method similar to Ex. 43. BACE-1 values reported in this table were measured using BACE-1 Ki Assay (BACE-1 HTRF FRET Assay).
• Reagents: Na^+-Acetate pH 5.0; 1% Brij-35; Glycerol; Dimethyl Sulfoxide (DMSO); Recombinant human soluble BACE1 catalytic domain (>95% pure); APP Swedish mutant peptide substrate (QSY7-APP^swe-Eu): QSY7-EISEVNLDAEFC-Europium-amide.
A homogeneous time-resolved FRET assay can be used to determine IC50 values for inhibitors of the soluble human BACE1 catalytic domain. This assay monitors the increase of 620 nm fluorescence that resulted from BACE1 cleavage of an APPswedish APP^swe mutant peptide FRET substrate (QSY7-EISEVNLDAEFC-Europium-amide). This substrate contains an N-terminal QSY7 moiety that serves as a quencher of the C-terminal Europium fluorophore (620 nm Em). In the absence of enzyme activity, 620 nm fluorescence is low in the assay and increased linearly over 3 hours in the presence of uninhibited BACE1 enzyme. Inhibition of BACE1 cleavage of the QSY7-APP^swe-Eu substrate by inhibitors is manifested as a suppression of 620 nm fluorescence.
Varying concentrations of inhibitors at 3× the final desired concentration in a volume of 10 ul are preincubated with purified human BACE1 catalytic domain (3 nM in 10 μl) for 30 minutes at 30° C. in reaction buffer containing 20 mM Na-Acetate pH 5.0, 10% glycerol, 0.1% Brij-35 and 7.5% DSMO. Reactions are initiated by addition of 10 μl of 600 nM QSY7-APP^swe-Eu substrate (200 nM final) to give a final reaction volume of 30 μl in a 384 well Nunc HTRF plate. The reactions are incubated at 30° C. for 1.5 hours. The 620 nm fluorescence is then read on a Rubystar HTRF plate reader (BMG Labtechnologies) using a 50 millisecond delay followed by a 400 millisecond acquisition time window. Inhibitor IC50 values are derived from non-linear regression analysis of concentration response curves. Ki values are then calculated from IC50 values using the Cheng-Prusoff equation using a previously determined […] of 8 μM for the QSY7-APP^swe-Eu substrate at BACE1.

The target in test [2] is purified human autoBACE-2 (Homo sapiens (Human), UniProt Q9Y5Z0). The test can be described thus: BACE-2 Assay (BACE-HTRF assay). The format is biochemical. Particulars: Ki calculated from IC50 using the Cheng-Prusoff equation; QSY7-EISEVNLDAEFC-Eu-amide substrate 200 nM, pH 5.0. The protocol: Inhibitor IC50s at purified human autoBACE-2 are determined in a time-resolved endpoint proteolysis assay that measures hydrolysis of the QSY7-EISEVNLDAEFC-Eu-amide FRET peptide substrate (BACE-HTRF assay). BACE-mediated hydrolysis of this peptide results in an increase in relative fluorescence (RFU) at 620 nm after excitation with 320 nm light. Inhibitor compounds, prepared at 3× the desired final concentration in 1×BACE assay buffer (20 mM sodium acetate pH 5.0, 10% glycerol, 0.1% Brij-35) supplemented with 7.5% DMSO are pre-incubated with an equal volume of autoBACE-2 enzyme diluted in 1×BACE assay buffer (final enzyme concentration 1 nM) in black 384-well NUNC plates for 30 minutes at 30° C. […] DMSO is present at […] final concentration in the assay. Following laser excitation of sample wells at 320 nm, the fluorescence signal at 620 nm is collected for 400 ms following a 50 μs delay on a RUBYstar HTRF plate reader (BMG Labtechnologies). Raw RFU data is normalized to maximum (1.0 nM BACE/DMSO) and minimum (no enzyme/DMSO) RFU values. IC50s are determined by nonlinear regression analysis (sigmoidal dose response, variable slope) of percent inhibition data with minimum and maximum values set to 0 and 100 percent respectively. Similar IC50s are obtained when using raw RFU data. The Ki values are calculated from the IC50 using the Cheng-Prusoff equation.
purified human autoBACE-2, sequence (Q9Y5Z0 63-473 limits assumed): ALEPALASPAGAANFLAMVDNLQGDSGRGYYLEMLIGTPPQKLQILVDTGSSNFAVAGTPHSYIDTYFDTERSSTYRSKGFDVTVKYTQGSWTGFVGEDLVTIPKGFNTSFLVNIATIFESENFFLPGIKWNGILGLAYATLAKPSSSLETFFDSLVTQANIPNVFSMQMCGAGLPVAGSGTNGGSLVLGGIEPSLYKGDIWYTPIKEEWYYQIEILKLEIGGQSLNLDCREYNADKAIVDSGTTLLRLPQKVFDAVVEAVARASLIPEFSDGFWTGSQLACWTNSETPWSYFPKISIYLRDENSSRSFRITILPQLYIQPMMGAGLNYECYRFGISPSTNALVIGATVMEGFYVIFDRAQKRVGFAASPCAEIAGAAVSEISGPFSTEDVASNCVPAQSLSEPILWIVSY

soluble human BACE1 catalytic domain, sequence (P56817 75-416): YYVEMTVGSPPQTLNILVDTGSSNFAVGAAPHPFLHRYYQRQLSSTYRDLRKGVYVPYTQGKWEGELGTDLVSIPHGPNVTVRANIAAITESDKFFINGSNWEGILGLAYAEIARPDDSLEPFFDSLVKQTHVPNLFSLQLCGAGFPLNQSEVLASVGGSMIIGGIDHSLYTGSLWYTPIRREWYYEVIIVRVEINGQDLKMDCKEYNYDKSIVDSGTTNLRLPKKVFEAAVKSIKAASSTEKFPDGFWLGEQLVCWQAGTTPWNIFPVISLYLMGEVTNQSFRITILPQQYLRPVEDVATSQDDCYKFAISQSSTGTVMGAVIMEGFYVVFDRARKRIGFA

The term Ki denotes a measure of affinity in units of concentration, obtained from inhibition or displacement. For the compound `C[C@@]1(c2cc(-c3cncc(Cl)c3)ccc2F)Cc2ncncc2C(=N)N1` [Example 4, (7S)-7-[5-(5-chloropyridin-3-yl)-2-fluoro-phenyl]-7-methyl-7,8-dihydropyrido[4,3-d]pyrimidin-5(6H)-imine], the Ki is 253 nM in test [1] and 130 nM in test [2].

In the case of `COc1cccc(-c2ccc(F)c([C@]3(C)Cc4ncncc4C(=N)N3)c2)c1` [Example 5, (7S)-7-(4-fluoro-3′-methoxybiphenyl-3-yl)-7-methyl-7,8-dihydro-pyrido[4,3-d]pyrimidin-5(6H)-imine], the values for the Ki in test [1] and in test [2] were 199 nM and 53.5 nM, respectively.

With `C[C@@]1(c2cc(-c3cccc(C(F)(F)F)c3)ccc2F)Cc2ncncc2C(=N)N1` [Example 6, (7S)-7-[4-fluoro-3′-(trifluoromethyl)biphenyl-3-yl]-7-methyl-7,8-dihydropyrido[4,3-d]pyrimidin-5(6H)-imine], the Ki is 3040 nM in test [1] and 549 nM in test [2].

For `C[C@@]1(c2cc(-c3cncnc3)ccc2F)Cc2ncncc2C(=N)N1` [Example 7, (7S)-7-(2-fluoro-5-pyrimidin-5-ylphenyl)-7-methyl-7,8-dihydro-pyrido[4,3-d]pyrimidin-5(6H)-imine], the Ki in test [1] was 771 nM; in test [2] it was 3460 nM.

In the case of `COc1cncc(-c2ccc(F)c([C@]3(C)Cc4ncncc4C(=N)N3)c2)c1` [Example 8, (7S)-7-[2-fluoro-5-(5-methoxypyridin-3-yl)phenyl]-7-methyl-7,8-dihydropyrido[4,3-d]pyrimidin-5(6H)-imine], the Ki in test [1] was 225 nM; in test [2], 87.8 nM.

As to `C[C@@]1(c2cc(-c3cncc(C#N)c3)ccc2F)Cc2ncncc2C(=N)N1` [Example 9, 5-{4-fluoro-3-[(7S)-5-imino-7-methyl-5,6,7,8-tetrahydropyrido[4,3-d]pyrimidin-7-yl]phenyl}pyridine-3-carbonitrile], the Ki is 601 nM in test [1] and 483 nM in test [2].

Regarding `C[C@@]1(c2cc(-c3cccnc3)ccc2F)Cc2ncncc2C(=N)N1` [Example 10, (7S)-7-(2-fluoro-5-pyridin-3-ylphenyl)-7-methyl-7,8-dihydropyrido[4,3-d]pyrimidin-5(6H)-imine], the Ki in test [1] is 746 nM; in test [2], 1180 nM.

For `C[C@@]1(c2cc(-c3cccc(C#N)c3)ccc2F)Cc2ncncc2C(=N)N1` [Example 11, 4′-fluoro-3′-[(7S)-5-imino-7-methyl-5,6,7,8-tetrahydropyrido[4,3-d]pyrimidin-7-yl]biphenyl-3-carbonitrile], the Ki in test [1] is 827 nM; in test [2] it was 259 nM.

Take `CC#Cc1cncc(-c2ccc(F)c([C@]3(C)Cc4ncncc4C(=N)N3)c2)c1` [Example 12, (7S)-7-[2-fluoro-5-(5-prop-1-yn-1-ylpyridin-3-yl)phenyl]-7-methyl-7,8-dihydropyrido[4,3-d]pyrimidin-5(6H)-imine]: the Ki in test [1] was 108 nM; in test [2], 20.2 nM.

For `C[C@@]1(c2sc(-c3cccc(C#N)c3)cc2Cl)Cc2ncncc2C(=N)N1` [Example 13, 3-{4-chloro-5-[(7S)-5-imino-7-methyl-5,6,7,8-tetrahydropyrido[4,3-d]pyrimidin-7-yl]thiophen-2-yl}benzonitrile], the Ki in test [1] is 35.2 nM; in test [2], 15.1 nM.

Take `C[C@@]1(c2sc(-c3cncc(C#N)c3)cc2Cl)Cc2ncncc2C(=N)N1` [Example 14, 5-{4-chloro-5-[(7S)-5-imino-7-methyl-5,6,7,8-tetrahydropyrido[4,3-d]pyrimidin-7-yl]thiophen-2-yl}pyridine-3-carbonitrile]: the Ki in test [1] was 75.2 nM; in test [2], 31.6 nM.

As to `C[C@@]1(c2sc(-c3cccc(-c4nnco4)c3)cc2Cl)Cc2ncncc2C(=N)N1` [Example 15, (7S)-7-{3-chloro-5-[3-(1,3,4-oxadiazol-2-yl)phenyl]thiophen-2-yl}-7-methyl-7,8-dihydropyrido[4,3-d]pyrimidin-5(6H)-imine], the results for the Ki in test [1] and in test [2] were 11.1 nM and 37.3 nM, respectively.

For `C[C@@]1(c2sc(-c3ccc(F)c(C#N)c3)cc2Cl)Cc2ncncc2C(=N)N1` [Example 16, 5-{4-chloro-5-[(7S)-5-imino-7-methyl-5,6,7,8-tetrahydropyrido[4,3-d]pyrimidin-7-yl]thiophen-2-yl}-2-fluorobenzonitrile], the Ki is 36.4 nM in test [1] and 16.7 nM in test [2].

As for `C[C@@]1(c2sc(-c3cc(F)cc(-c4nnco4)c3)cc2Cl)Cc2ncncc2C(=N)N1` [Example 17, (7S)-7-{3-chloro-5-[3-fluoro-5-(1,3,4-oxadiazol-2-yl)phenyl]thiophen-2-yl}-7-methyl-7,8-dihydropyrido[4,3-d]pyrimidin-5(6H)-imine], the Ki was 16.5 nM in test [1] and 21.6 nM in test [2].

With `C[C@]1(c2cc(-c3cccc(C#N)c3)cs2)NC(=N)c2cncnc2C1(F)F` [Example 18, 3-{5-[(7S)-8,8-difluoro-5-imino-7-methyl-5,6,7,8-tetrahydropyrido[4,3-d]pyrimidin-7-yl]thiophen-3-yl}benzonitrile], the Ki was 81.5 nM in test [1] and 39.8 nM in test [2].

As for `C[C@]1(c2sc(-c3cccc(C#N)c3)cc2Cl)NC(=N)c2cncnc2C1(F)F` [Example 19, 3-{4-chloro-5-[(7S)-8,8-difluoro-5-imino-7-methyl-5,6,7,8-tetrahydropyrido[4,3-d]pyrimidin-7-yl]thiophen-2-yl}benzonitrile], the Ki is 246 nM in test [1] and 128 nM in test [2].

For `C[C@]1(c2sc(-c3cccc(-c4nnco4)c3)cc2Cl)NC(=N)c2cncnc2C1(F)F` [Example 20, (7S)-7-{3-chloro-5-[3-(1,3,4-oxadiazol-2-yl)phenyl]thiophen-2-yl}-8,8-difluoro-7-methyl-7,8-dihydropyrido[4,3-d]pyrimidin-5(6H)-imine], the Ki is 33.3 nM in test [1] and 118 nM in test [2].

Consider `Cc1ncc2c(n1)C[C@@](C)(c1cc(-c3cccc(C#N)c3)cs1)NC2=N` [Example 23, 3-{5-[(7S)-5-imino-2,7-dimethyl-5,6,7,8-tetrahydropyrido[4,3-d]pyrimidin-7-yl]thiophen-3-yl}benzonitrile], for which the Ki in test [1] was 151 nM; in test [2], 87.9 nM.

As for `Cc1ncc2c(n1)C[C@@](C)(c1sc(-c3cccc(C#N)c3)cc1Cl)NC2=N` [Example 24, 3-{4-chloro-5-[(7S)-5-imino-2,7-dimethyl-5,6,7,8-tetrahydropyrido[4,3-d]pyrimidin-7-yl]thiophen-2-yl}benzonitrile], the Ki is 52.7 nM in test [1] and 28 nM in test [2].

`Cc1ncc2c(n1)C[C@@](C)(c1sc(-c3cncc(C#N)c3)cc1Cl)NC2=N` [Example 25, 5-{4-chloro-5-[(7S)-5-imino-2,7-dimethyl-5,6,7,8-tetrahydropyrido[4,3-d]pyrimidin-7-yl]thiophen-2-yl}pyridine-3-carbonitrile]: the Ki in test [1] is 125 nM; in test [2] it was 62.4 nM.

For `Cc1ncc2c(n1)C[C@@](C)(c1sc(-c3cccc(-c4nnco4)c3)cc1Cl)NC2=N` [Example 26, (7S)-7-{3-chloro-5-[3-(1,3,4-oxadiazol-2-yl)phenyl]thiophen-2-yl}-2,7-dimethyl-7,8-dihydropyrido[4,3-d]pyrimidin-5(6H)-imine], the Ki in test [1] is 10.6 nM; in test [2], 29.1 nM.
